Values after ≈ are worked out from the molar mass of the structure shown.
Tests used:
[1] = test system: Staphylococcus aureus ATCC 6538 P LRP 39; assay: Minimum bactericidal concentration (MBC); assay type: cell-based
Text: (§1) the bacterial power, expressed as the minimum bactericidal power (MBC) against some Gram positive aerobic stocks (table 5).

[2] = test system: Streptococcus faecalis subs. zymogenes LRP 61; assay: Minimum bactericidal concentration (MBC); assay type: cell-based
Text: as §1

[3] = test system: Streptococcus pneumoniae ATCC 6303 LRP 35; assay: Minimum bactericidal concentration (MBC); assay type: cell-based
Text: as §1

[4] = test system: Corynebacterium diphteriae LRP 24; assay: Minimum bactericidal concentration (MBC); assay type: cell-based
Text: as §1

[5] = test system: Streptococcus pyogenes ATCC 8668 LRP 34; assay: Minimum bactericidal concentration (MBC); assay type: cell-based
Text: as §1

[6] = test system: Staphylococcus aureus ATCC 6538 P LRP 39; assay: Bacteriostatic power in liquid medium (MIC); assay type: cell-based; settings: Staphylococcus aureus, ATCC6538; liquid medium; read-out: Minimum inhibiting concentration
Text: (§2) the bacteriostatic power, expressed as the minimum inhibiting concentration (MIC) against both aerobic and anaerobic, Gram positive and Gram negative, bacterial stocks: the related results are reported in the tables 2 and 3.

[7] = test system: Streptococcus pneumoniae ATCC 6303 LRP 35; assay: Bacteriostatic power in liquid medium (MIC); assay type: cell-based; settings: Streptococcus pneumoniae, ATCC6303; liquid medium; read-out: Minimum inhibiting concentration
Text: as §2

[8] = test system: Corynebacterium diphteriae LRP 24; assay: Bacteriostatic power in liquid medium (MIC); assay type: cell-based; settings: Corynebacterium, LRP24; liquid medium; read-out: Minimum inhibiting concentration
Text: as §2

[9] = test system: Streptococcus faecalis subs. zymogenes ATCC 12958 LRP 61; assay: Bacteriostatic power in liquid medium (MIC); assay type: cell-based; settings: Enterococcus faecalis, ATCC12958; liquid medium; read-out: Minimum inhibiting concentration
Text: as §2

[10] = test system: Streptococcus pyogenes ATCC 8668 LRP 34; assay: Bacteriostatic power in liquid medium (MIC); assay type: cell-based; settings: Streptococcus pyogenes, ATCC8668; liquid medium; read-out: Minimum inhibiting concentration
Text: as §2

[11] = test system: Clostridium perfrigens ATCC 3624 LRP 206; assay: microbe, parasite or virus in culture; assay type: cell-based; settings: ATCC3624, solid medium, anaerobic, read-out: Minimum inhibiting concentration
Text: as §2

Salmonella typhy LRP 8 = assay: microbe, parasite or virus in culture; assay type: cell-based; settings: LRP8, solid medium, read-out: Minimum inhibiting concentration
Text: as §2

[12] = test system: Haemophilus influenzae ATCC 19418 LRP 213; assay: Bacteriostatic power in solid medium (MIC); assay type: cell-based; settings: Haemophilus influenzae, ATCC19418; solid medium; read-out: Minimum inhibiting concentration
Text: as §2

[13] = test system: Pseudomonas aeruginosa LRP 9; assay: Bacteriostatic power in solid medium (MIC); assay type: cell-based; settings: Pseudomonas aeruginosa, LRP9; solid medium; read-out: Minimum inhibiting concentration
Text: as §2

[14] = test system: Streptococcus pyogenes ATCC 8668 LRP 197; assay: Bacteriostatic power in solid medium (MIC); assay type: cell-based; settings: Streptococcus pyogenes, ATCC8668; solid medium; read-out: Minimum inhibiting concentration
Text: as §2

Escherichia coli LRP 50 = assay: Bacteriostatic power in solid medium (MIC); assay type: cell-based; settings: Escherichia coli, LRP50; solid medium; read-out: Minimum inhibiting concentration
Text: as §2

[15] = test system: Neisseria gonorrhoeae ATCC 19424 LRP 214; assay: Bacteriostatic power in solid medium (MIC); assay type: cell-based; settings: Neisseria gonorrhoeae, ATCC19424; solid medium; read-out: Minimum inhibiting concentration
Text: as §2

[16] = test system: Staphylococcus aureus ATCC 14154 LRP 78; assay: Bacteriostatic power in solid medium (MIC); assay type: cell-based; settings: Staphylococcus aureus, ATCC14154; solid medium; Erythromycin resistant; read-out: Minimum inhibiting concentration
Text: as §2

[17] = test system: Mycoplasma hominis I ATCC 14027 LRP 211; assay: Bacteriostatic power in solid medium (MIC); assay type: cell-based; settings: Metamycoplasma hominis, ATCC14027; solid medium; read-out: Minimum inhibiting concentration
Text: as §2

[18] = test system: Bacteroides fragilis ATCC 23745 LRP 205; assay: Bacteriostatic power in solid medium (MIC); assay type: cell-based; settings: Bacteroides fragilis, ATCC23745; solid medium; anaerobic; read-out: Minimum inhibiting concentration
Text: as §2

Shigella sonnei LRP 5 = assay: Bacteriostatic power in solid medium (MIC); assay type: cell-based; settings: LRP5, read-out: Minimum inhibiting concentration
Text: as §2

[19] = test system: Streptococcus pneumoniae ATCC 6303 LRP 35; assay: Bacteriostatic power in solid medium (MIC); assay type: cell-based; settings: Streptococcus pneumoniae, ATCC6303; solid medium; read-out: Minimum inhibiting concentration
Text: as §2

[20] = test system: Fusobacteriumnecrophroum ATCC 27852 LRP 210; assay: Bacteriostatic power in solid medium (MIC); assay type: cell-based; settings: solid medium; anaerobic; read-out: Minimum inhibiting concentration
Text: as §2

[21] = test system: Streptococcus pneumoniae ATCC 6303 LRP 53; assay: Bacteriostatic power in solid medium (MIC); assay type: cell-based; settings: Streptococcus pneumoniae, ATCC6303; solid medium; read-out: Minimum inhibiting concentration
Text: as §2

[22] = test system: Micrococcus luteus ATCC 9341 LRP 6; assay: Bacteriostatic power in solid medium (MIC); assay type: cell-based; settings: Micrococcus luteus, ATCC9341; solid medium; read-out: Minimum inhibiting concentration
Text: as §2

[23] = test system: Staphylococcus aureus ATCC 6538P LRP 14; assay: Bacteriostatic power in solid medium (MIC); assay type: cell-based; settings: Staphylococcus aureus, ATCC6538P; solid medium; Penycilline resistant; read-out: Minimum inhibiting concentration
Text: as §2

[24] = test system: Proteus vulgaris ATCC 6380 LRP 13; assay: Bacteriostatic power in solid medium (MIC); assay type: cell-based; settings: Proteus vulgaris, ATCC6380; solid medium; read-out: Minimum inhibiting concentration
Text: as §2

[25] = test system: Klelsiella pneumoniae LRP 54; assay: Bacteriostatic power in solid medium (MIC); assay type: cell-based; settings: solid medium; read-out: Minimum inhibiting concentration
Text: as §2

[26] = test system: Corynebacterium diphteriae LRP 24; assay: Bacteriostatic power in solid medium (MIC); assay type: cell-based; settings: Corynebacterium, LRP24; solid medium; read-out: Minimum inhibiting concentration
Text: as §2

[27] = test system: Streptococcus pneumoniae ATCC 6303 LRP 52; assay: Bacteriostatic power in solid medium (MIC); assay type: cell-based; settings: Streptococcus pneumoniae, ATCC6303; solid medium; read-out: Minimum inhibiting concentration
Text: as §2

[28] = test system: Streptococcus faecalis LRP 7; assay: Bacteriostatic power in solid medium (MIC); assay type: cell-based; settings: Enterococcus faecalis, LRP7; solid medium; read-out: Minimum inhibiting concentration
Text: as §2

Bacillus subtilis LRP 25 = assay: Bacteriostatic power in solid medium (MIC); assay type: cell-based; settings: Bacillus subtilis, LRP25; solid medium; read-out: Minimum inhibiting concentration
Text: as §2

[29] = test system: Micrococcus luteus ATCC 15957 LRP 193; assay: Bacteriostatic power in solid medium (MIC); assay type: cell-based; settings: Micrococcus luteus, ATCC15957; solid medium; Erythromycin resistant; read-out: Minimum inhibiting concentration
Text: as §2

[30] = test system: Streptococcus faecalis subsp. zymogenes ATCC 12958 LRP 61; assay: Bacteriostatic power in solid medium (MIC); assay type: cell-based; settings: Enterococcus faecalis, ATCC12958; solid medium; read-out: Minimum inhibiting concentration
Text: as §2

[31] = test system: Staphylococcus aureus ATCC 6538P LRP 39; assay: Bacteriostatic power in solid medium (MIC); assay type: cell-based; settings: Staphylococcus aureus, ATCC6538P; solid medium; read-out: Minimum inhibiting concentration
Text: as §2

[32] = test system: Acholeplasma laidlawii ATCC 23206 LRP 204; assay: Bacteriostatic power in solid medium (MIC); assay type: cell-based; settings: Acholeplasma laidlawii, ATCC23206, read-out: Minimum inhibiting concentration
Text: as §2

[33] = test system: Streptococcus pyogenes ATCC 8668 LRP 34; assay: Bacteriostatic power in solid medium (MIC); assay type: cell-based; settings: Streptococcus pyogenes, ATCC8668; solid medium; read-out: Minimum inhibiting concentration
Text: as §2

[34] = Stability in acidic environment at 25° C. (half-life of initial microbiological activity); assay type: physicochemical; settings: aqueous solution
Protocol: Stability in acidic environnment at 25° C. of the novel
Note: t 1/2 represents the time for reducing to one half the initial powe
of the antibiotic determined by microbiological method through diffusion
on a plate using the test stock Microccocus luteus (Sarcina lutea) ATCC

In the case of `CC[C@H]1OC(=O)[C@H](C)[C@@H](O[C@H]2C[C@@](C)(O)[C@@H](O)[C@H](C)O2)[C@H](C)[C@@H](O[C@@H]2O[C@H](C)C[C@H](N(C)C)[C@H]2O)[C@](C)(O)C[C@](C)(F)C(=O)[C@H](C)[C@@H](O)[C@H]1C` [P-80202, (8S)-8-fluoroerythromycin D], the MBC/MIC [1] is reported as 16, the MBC ([1]; Staphylococcus aureus, ATCC6538, read-out: Minimum bactericidal concentration (MBC)) is reported as 3.12 µg/mL (≈ 4.32 µM) and the MBC/MIC [2] is reported as 8. The MBC ([2]; Enterococcus faecalis, read-out: Minimum bactericidal concentration (MBC)) was 3.12 µg/mL (≈ 4.32 µM), the MBC/MIC [3] was 4 and the MBC ([3]; Streptococcus pneumoniae, ATCC6303, read-out: Minimum bactericidal concentration (MBC)) was 0.195 µg/mL (≈ 0.27 µM). It also gave an MBC/MIC [4] of 16, an MBC ([4]; Corynebacterium, LRP24, read-out: Minimum bactericidal concentration (MBC)) of 0.195 µg/mL (≈ 0.27 µM) and an MBC/MIC [5] of 8. It also gave an MBC ([5]; Streptococcus pyogenes, ATCC8668, read-out: Minimum bactericidal concentration (MBC)) of 0.39 µg/mL (≈ 0.54 µM), an MIC [6] of 0.195 µg/mL (≈ 0.27 µM) and an MIC [7] of 0.049 µg/mL (≈ 0.0679 µM). The MIC [8] was 0.012 µg/mL (≈ 0.0166 µM), the MIC [9] was 0.39 µg/mL (≈ 0.54 µM) and the MIC [10] was 0.049 µg/mL (≈ 0.0679 µM). It also gave an MIC [11] of 3.12 µg/mL (≈ 4.32 µM), an MIC (Salmonella typhy LRP 8) of 12.5 µg/mL (≈ 17.3 µM) and an MIC [12] of 6.25 µg/mL (≈ 8.66 µM). The MIC [13] was 25 µg/mL (≈ 34.6 µM), the MIC [14] was 0.024 µg/mL (≈ 0.0332 µM) and the MIC (Escherichia coli LRP 50) was 25 µg/mL (≈ 34.6 µM). It also gave an MIC [15] of 0.097 µg/mL (≈ 0.134 µM), an MIC [16] of 25 µg/mL (≈ 34.6 µM) and an MIC [17] of 25 µg/mL (≈ 34.6 µM). The MIC [18] was 0.39 µg/mL (≈ 0.54 µM), the MIC (Shigella sonnei LRP 5) was 25 µg/mL (≈ 34.6 µM) and the MIC [19] was 0.024 µg/mL (≈ 0.0332 µM). For the same compound, the MIC [20] was 6.25 µg/mL (≈ 8.66 µM), the MIC [21] was 0.024 µg/mL (≈ 0.0332 µM) and the MIC [22] was 0.006 µg/mL (≈ 0.00831 µM). It also gave an MIC [23] of 0.097 µg/mL (≈ 0.134 µM), an MIC [24] of 25 µg/mL (≈ 34.6 µM) and an MIC [25] of 25 µg/mL (≈ 34.6 µM). The MIC [26] was 0.006 µg/mL (≈ 0.00831 µM), the MIC [27] was 0.024 µg/mL (≈ 0.0332 µM) and the MIC [28] was 0.097 µg/mL (≈ 0.134 µM). The MIC (Bacillus subtilis LRP 25) was 0.049 µg/mL (≈ 0.0679 µM), the MIC [29] was 25 µg/mL (≈ 34.6 µM) and the MIC [30] was 0.097 µg/mL (≈ 0.134 µM). It also gave an MIC [31] of 0.097 µg/mL (≈ 0.134 µM), an MIC [32] of 3.12 µg/mL (≈ 4.32 µM) and an MIC [33] of 0.024 µg/mL (≈ 0.0332 µM). It also gave a half-life ([34]; pH 2) of 0.4 h and a half-life ([34]; pH 3) of 10 h.
